The values that follow are results of earlier work, collected in US20250195668A1, “BIFUNCTIONAL MOLECULES FOR SELECTIVE MODIFICATION OF TARGET SUBSTRATES” (The Broad Institute, Inc., priority 2021, published 2025).

As usually defined, the IC50 is the concentration needed to halve the response being measured.

Common to all, as to details: cited from earlier work
One series has as its system hWB.
The next series addresses T1, TYK JH2 (Homo sapiens, UniProt P29597).
T1 construct: TYK JH2

In the next series the test system is IFNα.
The test system of series [1] is NF-κB Pathway (U937 cells).

Each structure is given as a SMILES string.

T1 sequence (P29597 589-875 limits assumed): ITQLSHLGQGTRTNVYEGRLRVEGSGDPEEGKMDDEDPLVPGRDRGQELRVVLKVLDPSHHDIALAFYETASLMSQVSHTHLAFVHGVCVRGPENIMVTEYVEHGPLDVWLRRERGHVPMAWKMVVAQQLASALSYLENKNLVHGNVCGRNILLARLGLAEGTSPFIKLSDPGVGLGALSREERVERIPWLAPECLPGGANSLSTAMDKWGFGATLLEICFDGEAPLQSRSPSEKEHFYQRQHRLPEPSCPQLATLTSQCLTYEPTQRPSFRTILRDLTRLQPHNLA

For the compound `O=C(O)c1cc(-c2cccc(F)c2)nc2ccccc12` [compound 26], the IC50 in the series on hWB was 870 ± 360 nM; on TYK JH2, 1.1 ± 0.2 nM; in the series with IFNα, 64 ± 17 nM.

In the case of `Cc1cccc(N2N=C(C(C)(C)C)CC2c2ccc(O)cc2)c1` (stereo not shown) [1k], the “NF-κB reporter gene assay % inhibn at 5 μM” value in series [1] is given as 73.7%.
